Assay results reported in patent US6087121A, “Chemiluminescent detection of heme proteins in biological samples” (Mayo Foundation for Medical Education and Research, priority 1999, dated 2000).
Entries after “also recorded” stand apart in the source; their conditions may differ. Read-outs that look alike come from different tables or passages of the source.

Experiments:
MPO [1] = biological target: T1, MPO (Homo sapiens, UniProt P05164); assay: Drug interferences with MPO (PS-1 assay in urine); type: biochemical; conditions: for inhibition at 0.001 µg/mL: 1 ng/mL
T1 sequence (P05164 49-745): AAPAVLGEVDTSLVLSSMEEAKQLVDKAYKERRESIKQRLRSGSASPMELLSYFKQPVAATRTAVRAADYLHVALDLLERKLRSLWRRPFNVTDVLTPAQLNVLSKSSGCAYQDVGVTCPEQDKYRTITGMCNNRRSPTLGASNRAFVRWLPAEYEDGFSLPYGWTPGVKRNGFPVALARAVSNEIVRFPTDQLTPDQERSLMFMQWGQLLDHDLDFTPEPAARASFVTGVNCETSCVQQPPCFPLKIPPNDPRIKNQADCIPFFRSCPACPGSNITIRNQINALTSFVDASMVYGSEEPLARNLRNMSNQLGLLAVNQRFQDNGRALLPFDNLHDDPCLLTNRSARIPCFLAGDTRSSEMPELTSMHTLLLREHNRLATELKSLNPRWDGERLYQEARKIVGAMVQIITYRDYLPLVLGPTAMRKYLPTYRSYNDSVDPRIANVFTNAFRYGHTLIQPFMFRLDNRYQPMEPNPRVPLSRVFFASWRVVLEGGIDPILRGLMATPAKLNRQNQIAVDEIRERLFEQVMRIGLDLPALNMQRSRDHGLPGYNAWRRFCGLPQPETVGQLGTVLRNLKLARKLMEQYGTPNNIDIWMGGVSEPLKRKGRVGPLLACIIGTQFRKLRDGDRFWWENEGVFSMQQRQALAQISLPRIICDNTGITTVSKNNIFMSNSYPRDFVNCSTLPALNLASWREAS
Protocol: (§1) Urine samples were diluted 1:4 into distilled water to minimize inhibitory effects observed with hyperosmolal urines. Two μL of diluted urine were added to 12×75 mm polystyrene test tube containing 50 μL of the PS-1 solution. The tubes were incubated at 37° C. for 5 minutes. MPO activity was determined by chemiluminescence emission using a Turner TD-20e luminometer maintained at 37° C. Leukocyte counting was performed manually by using a hemacytometer chamber (Kova Glasstic slide, Hycor, Irvine, Calif.) on each urine sample to determine the number of cells/mL.
Several possible interfering substances were added to urine and tested for inhibitory effects. Several common medications were also tested for potential inhibitory effects.

Hb [2] = assay: S/N ratios of different chemiluminescent substrates with Hb; type: biochemical, human; conditions: signal integrated over first five seconds
Protocol: (§2) Centricon ultrafiltration filters were obtained from Amicon (Daven, Mass.). Polystyrene tubes (5.0 mL volume, 75×12 mm) used for the assay were manufactured by Sarstedt (Arlington Heights, Ill.). The chemiluminescent substrate, 7-dimethylamino-naphthalene-1,2-dicarbonic acid-hydrazide (7-DNH) was purchased from Boehringer Mannheim (Indianapolis, Ind.). PS-1 acridan substrate (solution A and solution B) was obtained from Lumigen Inc. (Southfield, Mich.). […] Tween-20 and Sodium Chloride were purchased from Fisher Scientific (Fair Lawn, N.J.). General laboratory chemicals such as, boric acid, sodium acetate, Trizma base, HEPES, hydrogen peroxide (H2 O2) solution (30.0%), human hemoglobin, catalase, 6-amino-2,3-dihydro-1,4-phthallazinedione (4-aminophthalhydrazide), N-(4-Aminobutyl)-N-ethyl-isoluminol, Triton X-100, (3-[3-cholamidopropyl)dimethylammonio]-1-propanesulfonate) (CHAPS), hydrogen disulfite, methimazole, ofloxacin, ascorbic acid, ammonium chloride, EDTA, Hb, bilirubin, and lactoperoxidase (LPO) were purchased from Sigma Chemical Company (St. Louis, Mo.). Human heart myoglobin and myeloperoxidase were obtained from Calbiochem (La Jolla, Calif.) Thyroid peroxidase (TPO) was purchased from O.E.M. Concepts, Inc. (Toms River, N.J.). Eosinophil peroxidase was provided by Dr. Greipp (Mayo Clinic). Fresh EDTA anticoagulated blood was collected from donors showing no signs of sickness and washed with physiological saline to isolate RBC.
(§3) Fresh urine specimens were obtained in routine commercial collection vessels. The specimens were, either, analyzed immediately or stored at 4° C. until analysis. The urine samples were prepared for analysis by adding CTAC to produce a 0.1% solution, unless otherwise noted, in order to lyse the erythrocytes, thereby releasing hemoglobin. The assays were performed in a 75×12 mm polystyrene tube. The assay solutions were prepared by adding to each tube 294 μL of high ionic strength buffer, 5.0 μL of the prepared urine samples or standards, and […] of substrate (0.4 mM solution of 7-DNH), unless otherwise noted. […] The standard curve was obtained by plotting chemiluminescence emission in Relative Light Units (RLU) versus Hb concentration (μg/mL) or number of RBCs (#RBC/high power field (hpf)). Cell counts were determined with the Yellow Iris® instrument and confirmed by a manual hemocytometer count.
(§4) The substrate (7-DNH) and the ultrafiltered urine were prepared as described above. The kinetics of chemiluminescence was determined by monitoring the chemiluminescence signal over a 20 second time period following addition of the substrate (7-DNH) to ultrafiltered urine. Measurements were performed either in the presence or absence of Hb. Experiments performed in the absence of Hb provide background measurements in relative light units (RLU).

Mb = assay: S/N ratios of different chemiluminescent substrates with Mb; type: biochemical, human; conditions: signal integrated over first five seconds
Protocol: as §2, §3
as §4, with “Experiments performed in the absence of Hb provide background measurements in relative light units (RLU).” left out

MPO [3] = biological target: T1, MPO; assay: Effects of potential interfering substances in WBC (MPO, PS-1) assay; type: biochemical; conditions: highest tested: uric acid 1 mg/mL, ascorbic acid 100 μg/mL, bilirubin 50 μg/mL, trolox 1 mg/mL
Protocol: as §1
Several possible interfering substances were added to urine and tested for inhibitory effects. Several common medications were also tested for potential inhibitory effects. […] Hb at concentrations of >10 μg/mL and Mb at concentrations >2 μg/mL were detected by the PS-1 substrate as the chemiluminescence emission was above the normal urine background. Samples grossly populated with bacteria caused slight inhibition of the MPO activity. Urine samples may contain many epithelial cells, casts, crystals, and numerous artifacts but none of these appear to interfere with the chemiluminescence emission from MPO.

Hb [4] = assay: Interference studies in Hb assay (7-DNH chemiluminescence); type: biochemical, human; conditions: for Level of Interference (in words): highest conc: ascorbic acid 10, bilirubin 10, Cu++/Mn++ 40, sodium azide 500 μg/mL, uric acid 1 mg/mL; for Level of Interference: level producing a signal equivalent to 3 RBC per high power field, fixed Hb concentration
Protocol: Numerous potential interfering substances, which either enhance or quench the signal generated by cyclic hydrazides, were evaluated. The effects of these potentially interfering substances on light emission was investigated at varying concentrations of the interfering composition. Assays were performed using serial dilutions of the potential interfering compositions in ultrafiltered urine at a fixed concentration of Hb. Comparisons of chemiluminescence emission were made between a reference solution (Hb in ultrafiltered urine) without added interfering compositions and solutions with added interferant.
Generally, the value of 3 RBC per high power field is the normal cutoff point.
Bilirubin and uric acid were examined as a possible negative interfering compositions because of their chemical structure which may quench energy emitted.

Hb [5] = assay: Effects of detergents on chemiluminescence emission in Hb assay; type: biochemical, human
Protocol: Increasing concentrations of Hb were assayed with equal concentrations of different detergents to assess the effectiveness of the detergents at enhancing chemiluminescence emission. The effectiveness of the detergents was also compared at different time periods and varying concentrations. The ultrafiltered urine was assumed to contain neither Hb nor Mb and was used as the blank to assess background chemiluminescence emission with the substrate.

Compound: C[C@]12CC[C@@H]3c4ccc(O)cc4CC[C@H]3[C@@H]1CC[C@@H]2O [Estradiol]
- inhibition at 0.001 µg/mL (MPO [1]): 20%

Compound: CC(C(=O)O)c1cccc(C(=O)c2ccccc2)c1 (stereo not shown) [Ketoprofyn]
- inhibition at 100 mg/day (MPO [1]; read-out: % Inhibition of MPO): 10%

Compound: C[C@]12CC[C@@H]3c4ccc(O)cc4CC[C@H]3[C@@H]1C[C@@H](O)[C@@H]2O [Estriol]
- inhibition at 0.001 µg/mL (MPO [1]): 15%

Compound: CCN(CCCCN)c1ccc2c(=O)[nH][nH]c(=O)c2c1 [ABEI, N-(4-Aminobutyl)-N-ethyl-isoluminol]
- S/N for Hb (Hb [2]): 3
- S/N for Mb (Mb): 6

Compound: Cc1c(C)c2c(c(C)c1O)CCC(C)(C(=O)O)O2 (stereo not shown) [Trolox]
- Interference (in words) (MPO [3]): None
- Interference (in words) (MPO [3]; listed as trolox): did not affect assay performance

Compound: Eosinophil peroxidase: Eosinophil peroxidase was provided by Dr. Greipp (Mayo Clinic)
- Level of Interference (in words) (Hb [4]): only interfere at very high concentrations
- Level of Interference (Hb [4]): > 0.007 µg/mL

Compound: Nc1cccc2c(=O)[nH][nH]c(=O)c12 [Luminol]
- S/N for Hb (Hb [2]): 89
- S/N for Mb (Mb): 73

Compound: [N-]=[N+]=[N-] [Sodium Azide, sodium azide]
- Level of Interference (in words) (Hb [4]): None
- Level of Interference (in words) (Hb [4]; listed as sodium azide): did not interfere

Compound: COc1ccc2cc([C@H](C)C(=O)O)ccc2c1 [Naprosyn]
- inhibition at 800 mg/day (MPO [1]; read-out: % Inhibition of MPO): 5%

Compound: C[C@]12C=CC(=O)C=C1CC[C@@H]1[C@@H]2[C@@H](O)C[C@@]2(C)[C@H]1CC[C@]2(O)C(=O)CO [Prednisolone]
- inhibition at 100 µg/mL (MPO [1]; read-out: % Inhibition of MPO): 13%

Compound: O=C1O[C@H]([C@@H](O)CO)C(O)=C1O [Ascorbic Acid, ascorbic acid]
- Level of Interference (in words) (Hb [4]): None
- Level of Interference (in words) (Hb [4]; listed as ascorbic acid): did not interfere; also recorded: did not have an inhibitory effect on the reaction
- Interference (in words) (MPO [3]): None
- Interference (in words) (MPO [3]; listed as ascorbic acid): did not affect assay performance

Compound: Cn1c(=O)c2[nH]cnc2n(C)c1=O [Aminophyllin]
- % Inhibition of MPO (MPO [1]; 100 μg/mL): 4%

Compound: Catalase
- Level of Interference (in words) (Hb [4]): only interfere at very high concentrations
- Level of Interference (Hb [4]): > 7.8 µg/mL

Compound: O=c1[nH]c(=O)c2[nH]c(=O)[nH]c2[nH]1 [Uric Acid, uric acid]
- Level of Interference (in words) (Hb [4]): None
- Level of Interference (in words) (Hb [4]; listed as Uric acid): did not interfere
- Interference (in words) (MPO [3]): None
- Interference (in words) (MPO [3]; listed as uric acid): did not affect assay performance

Compound: Superoxide dismutase
- Level of Interference (Hb [4]): > 125 µg/mL

Compound: Nc1ccc2c(=O)[nH][nH]c(=O)c2c1 [Isoluminol, 6-amino-2,3-dihydro-1,4-phthallazinedione]
- S/N for Hb (Hb [2]): 3
- S/N for Mb (Mb): 5

Compound: C=CC1=C(C)/C(=C/c2[nH]c(Cc3[nH]c(/C=C4\NC(=O)C(C)=C4C=C)c(C)c3CCC(=O)O)c(CCC(=O)O)c2C)NC1=O [Bilirubin, bilirubin]
- Level of Interference (in words) (Hb [4]): None
- Level of Interference (in words) (Hb [4]; listed as bilirubin): did not interfere
- Interference (in words) (MPO [3]): None
- Interference (in words) (MPO [3]; listed as bilirubin): did not affect assay performance

Compound: CN(C)CCC=C1c2ccccc2CCc2ccccc21 [Amitriptylene]
- inhibition at 100 µg/mL (MPO [1]; 100 μg/mL, read-out: % Inhibition of MPO): 75%

Compound: Cn1c(=O)c2[nH]cnc2n(C)c1=O [Theophyllin]
- % Inhibition of MPO (MPO [1]; 100 μg/mL): 11%

Compound: CCCCCCCCCCCCCCCC[N+](C)(C)C.[Cl-] [CTAC, cetyltrimethyl-ammonium chloride]
- enhancement of chemiluminescence signal (Hb [5]; 7-DNH, various Hb concentrations): highest chemiluminescence signal
- optimal concentration for enhancement of signal (Hb [5]; dose-dependent enhancement, FIG. 4B): 0.1%
